Patent US20240100104A1, “METHODS AND COMPOSITION FOR THE TREATMENT OF AUTISM SPECTRUM DISORDER” (The General Hospital Corporation, priority 2020, published 2024)

How the values were obtained:
[1] = 32 IU per day, patients age 3-8 years old; cited from earlier work
[2] = test system: mouse models of ASD; conditions: two mouse models of ASD; cited from earlier work
[3] = test system: patients with ASD; assay: Clinical Global Impression-Improvement (CGI-I); type: in vivo, human; conditions: vs control group; P<0.05 only for combination
Procedure: FIG. 2. Proportion of subjects displaying improvement in CGI-I overtime among all subjects within a treatment condition.
Clinical Global Impression (CGI) was assessed to evaluate ASD symptoms and the relative extent of improvement in symptoms at each visiting time. […] The waterfall data of CGI score reduction in each group is shown in supplement FIG. 6.
This clinical trial is a randomized, double-blind, and placebo-controlled study in accordance with the Consolidated Standards of Reporting Trials (CONSORT) guidelines. Subjects were randomized to two groups with 1:1 ratio into this two-stage study. To achieve a statistical power of 80% for primary outcomes with a large effect size of 0.8 (Cohen's d) assumed, a total of 60 participants (30 in each arm) were required. However, as we are primarily interested in studying the preliminary effects of the proposed treatment, we enrolled and randomized 35 subjects who were included in the data analysis. In stage 1, the probiotics group received oral probiotics PS128 while the placebo group received oral placebo for 16 weeks. In stage 2, both groups continued their respective administration and simultaneously added intranasal oxytocin spray. The treatment proceeded for a total of 28 weeks with 3 visits for outcomes measurement at 0, 16 weeks, and 28 weeks (V1, V2, and V3, respectively). […]

For `CC[C@H](C)[C@@H]1NC(=O)[C@H](Cc2ccc(O)cc2)NC(=O)[C@@H](N)CSSC[C@@H](C(=O)N2CCC[C@H]2C(=O)N[C@@H](CC(C)C)C(=O)NCC(N)=O)NC(=O)[C@H](CC(N)=O)NC(=O)[C@H](CCC(N)=O)NC1=O` [OXT, Oxytocin], the safety of dosage [1] is listed as “safe and adequate”, the effect on sociability [2] is listed as “enhanced sociability” and the “proportion of subjects showing improvement in CGI-I (CGI-I≤3)” value [3] is listed as “non-significant, though a trend of improvement”.
